Reference: article PMC7112848 (Journal of Virological Methods, 2008)

Molecular target: rgH1N1 NA (Influenza A virus, UniProt Q6DPL2)
Type: biochemical, reverse-genetic influenza A virus rgH1N1

rgH1N1 NA, sequence (Q6DPL2 whole entry, looked up): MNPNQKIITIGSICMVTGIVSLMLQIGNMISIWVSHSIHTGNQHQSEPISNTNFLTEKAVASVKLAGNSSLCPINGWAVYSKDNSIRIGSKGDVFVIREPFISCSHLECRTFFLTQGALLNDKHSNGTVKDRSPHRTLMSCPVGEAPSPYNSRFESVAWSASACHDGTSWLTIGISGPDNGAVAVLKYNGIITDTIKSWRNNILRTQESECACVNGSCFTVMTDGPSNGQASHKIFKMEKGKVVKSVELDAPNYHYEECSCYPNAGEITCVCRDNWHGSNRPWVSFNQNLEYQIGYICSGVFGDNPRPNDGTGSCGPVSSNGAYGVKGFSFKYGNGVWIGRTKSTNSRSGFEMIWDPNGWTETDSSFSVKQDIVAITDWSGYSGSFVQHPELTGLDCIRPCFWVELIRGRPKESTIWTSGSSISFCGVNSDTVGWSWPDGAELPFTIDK

Q: With `CC(=O)N[C@@H]1[C@@H](O)C[C@](Oc2ccc3c(C)cc(=O)oc3c2)(C(=O)O)O[C@H]1C(O)[C@H](O)CO` (stereo partly drawn) [MUNANA, 2′-(4-methylumbelliferyl)-α-D-N-acetylneuraminic acid] as the molecule, how does the Km read?
A: 18 ± 2 µM
